Measurements from US10745487B2, “Method of treating cancer by administering an anti-LGR5 monoclonal antibody” (Bionomics Limited, priority 2016, dated 2020).

Key:
[1] = test system: LGR5 expression in pancreatic cell lines; assay: LGR5 expression by flow cytometry in treated pancreatic cell lines; assay type: cell-based, human; conditions: panel AsPc1, HPAFII, PANC1, BxPC3, CFPAC, PANC10.05, Capan2, SW1990
Protocol: The pancreatic cell lines that were tested include: AsPc1, HPAFII, PANC1, BxPC3, CFPAC, PANC10.05, Capan2 and SW1990.

[2] = test system: LGR5 expression in JH109, ASPC1 and PANC1 tumors; assay: QPCR of LGR5 expression in treated pancreatic tumors; assay type: in vivo, mice; conditions: standard of care: Gemzar and Abraxane in JH109, Gemzar alone in PANC1 and ASPC1
Protocol: LGR5 expression in metastatic pancreatic patient derived xenografts was investigated using the quantitative polymerase chain reaction (QPCR). A sample of tumor tissue was flash frozen or added to a cryovial containing RNAlater (Qiagen, CA), and transferred to −70° C. after incubation at 4° C. for several hours. Total RNA was extracted using a Qiagen RNeasy extraction kit (Qiagen, CA), and cDNA was synthesized using a SuperScriptIII kit (Life Technologies, CA) and protocols provided by the manufacturer. Human LGR5 transcript abundance was measured using human specific LGR5 and GAPDH primers and the following thermal condition in the StepOne Thermocycler (Life Technologies, CA): 50° C. (2 min); 90° C. (2 min) and 40 cycles of 90° C. (15 sec) and 60° C. (1 min) and melt curve assessment (from 65° C.-95° C.). LGR5 abundance was quantified using 2^δCt equation.
LGR5 expression was investigated in a series of pancreatic tumors including JH109, ASPC1 and PANC1.

[3] = test system: LGR5 expression in CRC cell lines; assay: LGR5 expression by flow cytometry in treated CRC cell lines; assay type: cell-based, human; conditions: panel DLD1, HCT116, LS174t, LoVo, SW48, SW480, SW620; 1 um, 72 hrs
Protocol: A panel of CRC cell lines including DLD1, HCT116, LS174t, LoVo, SW48, SW480 and SW620 were treated with a PI3K/mTOR dual inhibitor (NVP) or 2 different cytotoxic agents including SN38 (active metabolite of Irinotecan) or 5FU (5 fluorouracil). Cells were treated with the above agents at 1 um and were harvested after 72 hrs. Cells were then stained with anti-LGR5 Mab conjugated to Alexa Fluor647 and the data were analyzed by flow cytometry using a FACScalibur.

Row | Structure (SMILES) | LGR5 expression (flow cytometry) [1] | LGR5 expression in tumors (QPCR) [2] | LGR5 expression (flow cytometry) [3]
1 | CC(=O)O[C@H]1C(=O)[C@@]2(C)[C@H]([C@H](OC(=O)c3ccccc3)[C@]3(O)C[C@H](OC(=O)[C@H](O)[C@@H](NC(=O)c4ccccc4)c4ccccc4)C(C)=C1C3(C)C)[C@]1(OC(C)=O)CO[C@@H]1C[C@@H]2O [taxol] | increased LGR5 expression in HPAFII | – | –
2 | Nc1ccn([C@@H]2O[C@H](CO)[C@@H](O)C2(F)F)c(=O)n1 [gemcitabine, reference compound] | upregulates LGR5 in PANC1 | induction in LGR5 expression | –
3 | CCc1c2c(nc3ccc(O)cc13)-c1cc3c(c(=O)n1C2)COC(=O)[C@]3(O)CC [SN38] | – | – | promoted LGR5 expression in HCT116, LS174t, SW48, SW480 and especially SW620 cells
4 | O=c1[nH]cc(F)c(=O)[nH]1 [5FU, 5 fluorouracil] | – | – | did not induce LGR5 expression in any of these lines
